According to US8791132B2, “Compounds and methods for treatment of hypertension” (Medivation Technologies, Inc., priority 2011, dated 2014):

Key:
[1] = Solubility in MeOH (chiral preparative HPLC data); assay type: physicochemical; conditions: sample for chiral preparative HPLC
Method: For chiral separations, samples were dissolved in MeOH and EtOH according to the solubility of sample and filtered through 0.22μ. PTFE filters. The columns used were […]-AD; 20*250 mm, 10μ and […]-ODH; 20*250 mm, 5μ. A flow rate of 12 mL/min-17 mL/min was used according to the resolution. Alkanes such as n-Pentane, Hexane and Heptane (40%-95%) and alcohols such as EtOH, Isopropyl alcohol and t-Butanol (5%-60%) were used as mobile phase. In some cases alcohol combinations i.e. (EtOH+MeOH), (EtOH+IPA), (IPA+MeOH), (t-Butanol+MeOH), (t-Butanol+EtOH) were used instead of a single alcohol. Diethyl amine (up to 0.3%) was used as modifier in the mobile phase.
Column: Chiralcel OD-H. Column ID: 20*250 mm, 5μ. Mobile Phase:Hexane: (EtOH:MeOH 80:20)−95:5. Flow rate: 15 mL/min. Solubility: 30 mg/mL in MeOH.
Column: Chiral PAK-AD-H. Column ID: 20*250 mm, 5μ. Mobile Phase:Hexane (0.2% diethylamine):Isopropanol−93:7. Flow rate: 15 mL/min. Solubility: 40 mg/mL in MeOH.

[2] = target: T1, human recombinant adrenergic α2B receptor (Homo sapiens, UniProt P18089); test: Radioligand binding, adrenergic α2B ([3H]Rauwolscine); conditions: compound at 0.03 μM; [3H]Rauwolscine; repeat datapoints each shown; 0.03 µM
T1 construct: expressed in transfected cells; host or cells: CHO-K1
T1 sequence (P18089 1-450): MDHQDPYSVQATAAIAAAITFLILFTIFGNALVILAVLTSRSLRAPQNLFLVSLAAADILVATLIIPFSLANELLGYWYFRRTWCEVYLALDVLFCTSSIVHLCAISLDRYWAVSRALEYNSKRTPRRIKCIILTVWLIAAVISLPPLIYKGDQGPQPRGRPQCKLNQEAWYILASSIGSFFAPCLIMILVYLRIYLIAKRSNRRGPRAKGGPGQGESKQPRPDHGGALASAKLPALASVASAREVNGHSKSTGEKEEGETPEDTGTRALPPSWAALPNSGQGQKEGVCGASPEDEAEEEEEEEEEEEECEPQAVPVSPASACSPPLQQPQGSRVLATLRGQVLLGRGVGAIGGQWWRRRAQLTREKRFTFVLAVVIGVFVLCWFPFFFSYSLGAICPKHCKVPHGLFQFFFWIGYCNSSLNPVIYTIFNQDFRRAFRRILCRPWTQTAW
In short: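 Assay used CHO-K1-expressed human α2B receptor in Tris-HCl pH 7.4 buffer with MgCl2, EDTA and BSA; 60 min incubation at 25 °C.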

[3] = target: T2, human recombinant adrenergic α2A receptor (Homo sapiens, UniProt P08913); test: Radioligand binding, adrenergic α2A ([3H]MK-912); conditions: compound at 0.1 μM; [3H]MK-912; repeat datapoints each shown; 0.1 µM
T2 construct: expressed in transfected cells; host or cells: insect Sf9 cells
T2 sequence (P08913 1-465): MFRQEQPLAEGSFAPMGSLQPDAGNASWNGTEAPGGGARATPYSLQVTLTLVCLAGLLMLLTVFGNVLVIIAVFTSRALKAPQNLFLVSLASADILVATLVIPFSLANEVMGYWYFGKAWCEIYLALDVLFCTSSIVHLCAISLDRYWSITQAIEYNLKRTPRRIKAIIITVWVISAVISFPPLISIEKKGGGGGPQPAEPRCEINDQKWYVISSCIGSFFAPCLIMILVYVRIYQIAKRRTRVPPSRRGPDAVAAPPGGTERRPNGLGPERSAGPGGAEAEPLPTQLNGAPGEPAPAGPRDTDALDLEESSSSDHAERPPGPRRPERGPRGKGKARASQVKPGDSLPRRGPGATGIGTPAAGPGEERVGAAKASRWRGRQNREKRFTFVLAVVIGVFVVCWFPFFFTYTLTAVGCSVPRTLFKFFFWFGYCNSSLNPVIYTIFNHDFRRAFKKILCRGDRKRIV
In short: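 Receptor expressed in Sf9 cells, in 50 mM Tris-HCl pH 7.4, 12.5 mM MgCl2, 2 mM EDTA; compounds incubated with 1 nM [3H]MK-912 for 60 min at 25 °C.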

[4] = target: T3, rat adrenergic α1B receptor (Rattus norvegicus, UniProt P15823); test: Radioligand binding, adrenergic α1B ([3H]Prazosin); conditions: compound at 0.1 μM; [3H]Prazosin; repeat datapoints each shown; 0.1 µM
T3 construct: rat adrenergic α1B receptor obtained from Wistar Rat liver; from tissue; host or cells: Wistar rat liver
T3 sequence (P15823 1-515): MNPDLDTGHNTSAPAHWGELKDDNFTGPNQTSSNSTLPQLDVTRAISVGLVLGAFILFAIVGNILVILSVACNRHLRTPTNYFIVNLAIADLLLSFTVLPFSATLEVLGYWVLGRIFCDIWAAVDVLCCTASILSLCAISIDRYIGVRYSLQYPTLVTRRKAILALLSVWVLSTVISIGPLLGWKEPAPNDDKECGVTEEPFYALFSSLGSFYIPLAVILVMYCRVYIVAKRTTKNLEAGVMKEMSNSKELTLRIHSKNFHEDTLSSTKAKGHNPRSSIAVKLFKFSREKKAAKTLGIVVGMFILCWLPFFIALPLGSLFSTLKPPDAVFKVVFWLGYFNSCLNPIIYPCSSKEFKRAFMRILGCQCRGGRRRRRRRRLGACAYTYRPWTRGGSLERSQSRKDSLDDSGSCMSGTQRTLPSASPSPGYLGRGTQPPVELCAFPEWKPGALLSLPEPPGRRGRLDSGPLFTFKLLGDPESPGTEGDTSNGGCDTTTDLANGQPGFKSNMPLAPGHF
In short: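 Rat α1B receptor from Wistar rat liver was incubated with 0.25 nM [3H]prazosin for 60 min at 25 °C in 50 mM Tris-HCl, pH 7.4, 0.5 mM EDTA. Non-specific binding was defined with 10 μM phentolamine. Bound radioligand was measured by filtration and counting, reported as percent inhibition of specific binding.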

SH-SY5Y cells [5] = test: Cell viability (MTS reduction) in 4-Br-A23187-treated SH-SY5Y cells; assay type: cell-based; conditions: MTS reduction capacity; 4-Br-A23187 2 μM, 24 h; compounds at 10 nM
Method: (§1) After 24 h, cells were depleted from FBS and kept in culture for 24 h before the experiment. Cells were then treated with 4-Br-A23187 (2 μM), hydrogen peroxide (300 μM) or the mitochondrial toxin rotenone (25 μM) in the presence of vehicle or Compound of the Invention for 24 h. Cell death was determined by measurements of LDH release according to the Cytotoxicity Detection KitPlus (Roche, Mannheim, Germany). Cell viability was determined by measuring the capacity of cells to metabolize MTS tetrazolium (MTS) according to the Cytotoxicity Detection KitPlus (Roche, Mannheim, Germany) and MTS reduction is assessed by the CellTiter 96® AQueous One Solution Cell Proliferation assay (Promega Corporation, Madison, Wis., USA). Compounds were screened at 10 nM, using DMSO as vehicle. Assay results for the experiments with hydrogen peroxide are presented as the LDH release (cell death) of untreated cells (control), hydrogen peroxide-treated cells (vehicle), and co-incubation of hydrogen peroxide with Compounds of the Invention treated cells normalized to the vehicle (FIG. 17A). This assay assesses the ability of the test compounds to protect against cell death that is mediated by mitochondrial dysfunction. In the assay, the calcium ionophore 4-Br-A23187 is used to challenge the cells, causing calcium levels to rise in mitochondria, which leads to depolarization and cell death. Test compounds are assessed for their ability to prevent cell death in response to challenge with 4-Br-A23187.

[6] = tested on: SH-SY5Y cells over-expressing α-syn; test: Cell viability (MTS reduction) in SH-SY5Y cells over-expressing α-synuclein; assay type: cell-based; conditions: Homo sapiens, 336 h, α-syn over-expression (−dox), +dox control = 100, 14 days, read-out: Relative cell viability protection
Method: Cell Culture. SH-SY5Y cells stably transfected with a doxycyline-inducible wild-type α-synuclein (α-syn) gene along with control SH-SY5Y cells over-expressing the β-galactosidase (β-gal) gene (a gift from L. Stefanis, Division of Basic Neurosciences, Biomedical Research Foundation of the Academy of Athens, Athens, Greece) are cultured as described by Vekrellis et al. (Vekrellis K, Xilouri M, Emmanouilidou E, Stefanis L. (2009). Inducible over-expression of α-syn in human neuronal cells leads to caspase-dependent non-apoptotic death. J Neurochem 109, 1348-1362). In accordance with this method, cells are cultured and maintained in RPMI 1640, 10% fetal bovine serum supplemented with 250 μg/mL G418 and 50 μg/mL Hygromycin B. Expression of α-syn is switched off in stock cultures with doxycycline (2 μg/mL). For experimental procedures, cells are plated at (4−8×10^4 cells/cm^2) and differentiated in absence of doxycycline and in the presence of 20 μM all-trans retinoic acid (RA) (Sigma, St Louis, Mo., USA).
Viability Assay: Cells are cultured in 96-well plates. After 24 h, cells are treated with RA and Compounds of Invention at 0.1 and 10 nM in the absence of doxycyline. Culture medium with RA and drugs is fully replaced after 7 days. Cell viability is measured by the release of lactate dehydrogenase (LDH) from necrotic cells into the culture medium and by measuring the capacity of cells to metabolize MTS tetrazolium (MTS) after 14 days in culture. LDH leakage is assessed according to the Cytotoxicity Detection KitPlus (Roche, Mannheim, Germany) and MTS reduction is assessed by the CellTiter 96® AQueous One Solution Cell Proliferation assay (Promega Corporation, Madison, Wis., USA).
Assay results for the experiments with α-syn over-expression are presented as the MTS reduction capacity (cell viability) of control cells (+dox), cells over-expressing α-syn (−dox), and cells over-expressing α-syn incubated with Compounds of the Invention at 0.1 nM (FIG. 18A) or 10 nM (FIG. 18B).

SH-SY5Y cells [7] = test: Cell death (LDH release) in hydrogen peroxide-treated SH-SY5Y cells; assay type: cell-based; conditions: LDH release normalized to vehicle (=100); hydrogen peroxide 300 μM, 24 h; compounds at 10 nM
Method: as §1, with “SH-SY5Y cells cultured in DMEM/F12 media supplemented with 10% FBS were seeded in 96-well microplates at 150,000 cells/cm^2. After” for “After”

Cc1cnc2c(c1)c1c(n2CC(C)(O)c2ccc(F)cc2)CCN(C)C1 (single isomer, unassigned) [138a]
Solubility [1]: 30 mg/mL | Percentage inhibition of ligand binding, Adrenergic α2B (0.03 μM) [2]: 63% | Percentage inhibition of ligand binding, Adrenergic α2A (0.1 μM) [3]: −8% | Percentage inhibition of ligand binding, Adrenergic α1B (0.1 μM) [4]: 61%

Cc1cnc2c(c1)c1c(n2CC(C)(O)c2ccc(F)cc2)CCN(C)C1 (single isomer, unassigned) [138b]
Solubility [1]: 30 mg/mL | Percentage inhibition of ligand binding, Adrenergic α2B (0.03 μM) [2]: 25% | Percentage inhibition of ligand binding, Adrenergic α2A (0.1 μM) [3]: 4% | Percentage inhibition of ligand binding, Adrenergic α1B (0.1 μM) [4]: 22%

Cc1ccc2c(c1)c1c(n2CCc2ccc(C)nc2)CCN(C)C1 [Dimebon (DMB), dimebon, reference compound]
Relative cell viability protection (SH-SY5Y cells [5]): 0.3538 | viability at 0.0001 µM ([6]; compounds at 0.1 nM): 70.5% | viability at 0.01 µM ([6]; compounds at 10 nM): 85.7% | LDH release (cell death), relative to vehicle (SH-SY5Y cells [7]): 91.15
